We go through five compounds from patent US10975432B2, “Tagged multi-nucleotides useful for nucleic acid sequencing” (Roche Sequencing Solutions, Inc., priority 2016, dated 2021).

Series [1] relates to α-HL-Pol6 nanopore-polymerase conjugate.
For series [2], the system named is exonuclease deficient variant of the Pol6 polymerase. Nature of the series: Displacement assay of single-, double-, triple- and quadruple-nucleotide substrates (Example 3). It counts as biochemical. The source says: The assay is a displacement assay using an exonuclease deficient variant of the Pol6 polymerase as described in Example 2, wherein polymerase activity is followed by fluorometrically monitoring the change in FRET between the Cy5 and BHQ labels as the polymerase incorporates the substrates in the DNA extension reaction.
Briefly, an assay solution containing the Pol6 polymerase, the 5′-Cy5-labelled displacement DNA template of SEQ ID NO: 124, and the 3′-BHQ-labelled quencher primer of SEQ ID NO: 124 in 75 mM potassium glutamate (“K-Glu”) is prepared in the absence of the substrate or Mg^2+ ion. A substrate solution is prepared containing either the multi-nucleotide compound to be assayed (i.e., “Y-Tag,” “W-Tag,” or “Q-Tag”), the non-tagged dT6P (“Hexa-PO4), or the tagged single nucleotide substrate, dA6P-dT30-C3 (“Full Tag”) of compound (3d). Also included in the substrate solution are the other three nucleotide-hexaphosphate (“dN6P”) substrates required for polymerase synthesis of a strand complementary to the DNA template (i.e., dA6P, dC6P, dG6P). This substrate solution is added to the polymerase solution. Assays are carried out for each of the test substrates at the following initial concentrations: 0.25 μM, 0.5 μM, 1.0 μM, 2.0 μM, 4.0 μM, and 8.0 μM. Additional K-Glu is added to bring the total K-Glu concentration in the mixture up to 300 mM. The polymerase reaction is then initiated by addition of MgCl2. Final concentrations in the assay reaction mixture are: 100 nM Pol6 enzyme, 50 nM Cy5 displacement DNA template, 40 μM each of other dN6P substrates, 300 mM K-Glu, 25 mM HEPES, 0.2 mM EDTA, 0.05% Triton X-100, 5 mM TCEP, 25 μg/mL BSA, 5 mM MgCl2, pH 7.5.

Consider “(dG6P)2-dT6-(Tmp)6-dT8-C3: two dG6P linked via doubler-linker to tag SEQ ID NO: 107 (DNA TTTTTTNNNNNNTTTTTTTT; two dG6P via doubler linker, Tmp, C3 cap; (7)..(12) thymidine methylphosphonate; (20)..(20) T-propanol)”, for which the Blocking current level in series [1] is listed as 0.38+/−0.08 Fraction of Open Current.
The same measure, in the same setting: the result for “(dA6P)2-dT5-(BHEB)-dT14-C3: two dA6P linked via doubler-linker to tag SEQ ID NO: 109 (DNA TTTTTNTTTTTTTTTTTTTT; two dA6P via doubler linker, BHEB, C3 cap, chemistry not fully specified)” reads 0.88+/−0.03 Fraction of Open Current; that for “(dC6P)2-dT20-C3: two dC6P linked via doubler-linker to tag SEQ ID NO: 105 (DNA tttttttttttttttttttt; two dC6P via doubler linker, C3 cap; (20)..(20) T-propanol)”, 0.76+/−0.04 Fraction of Open Current.
For `Cc1cn([C@H]2C[C@H](O)[C@@H](COP(=O)(O)OP(=O)(O)OP(=O)(O)OP(=O)(O)OP(=O)(O)OP(=O)(O)O)O2)c(=O)[nH]c1=O` [dT6P], the “Rate (Bases/sec)” value in series [2] (Initial Conc. Tag 0.25 μM) was found to be 0.57 Bases/sec; in series [2] (Initial Conc. Tag 0.5 μM), 2.87 Bases/sec; in series [2] (Initial Conc. Tag 1.0 μM) it was 3.48 Bases/sec; in series [2] (Initial Conc. Tag 2.0 μM), 3.89 Bases/sec; in series [2] (Initial Conc. Tag 4.0 μM), 4.48 Bases/sec; in series [2] (Initial Conc. Tag 8.0 μM), 4.24 Bases/sec.
Consider “(dT6P)2-dT4-(N3CE-dT)3-dT13-C3: two dT6P linked via doubler-linker to tag SEQ ID NO: 106 (DNA TTTTNNNTTTTTTTTTTTTT; chemistry not fully specified)”, for which the Blocking current level in series [1] is 0.62+/−0.05 Fraction of Open Current.
